Measurements from article PMC9505425, “Targeting of the Mitochondrial TET1 Protein by Pyrrolo[3,2-b]pyrrole Chelators” (International Journal of Molecular Sciences, 2022).
“And” between values parts separate entries of the source, which are not always exact repeats. Equal entries are not always repeated.

What was measured:
Assay type in all cases: cell-based, human
[1] = MTT cytotoxicity assay, HF-P4; conditions: human, HF-P4 normal human dermal fibroblasts, repeats, read-out: Cell viability %
Protocol: (§1) The effects of the tested compounds 1–6 on HF-P4, U-118 MG, H1299, BT-20, and Caov-3 cell lines were evaluated by the MTT assay during 48 h treatment (Table 2 and Tables S2–S31). In all tested compounds, we recognized a difference in cytotoxicity between healthy cells (HF-P4) and cancer cell lines (BT-20, Caov-3, and H-1299). […] In the case of ovarian cancer, the authors discovered oncogenic and poor prognosis roles of TET1 in epithelial ovarian carcinoma (EOC). TET1 is believed to demethylate the epigenome and activate numerous oncogenic pathways in EOC. The aforementioned study presents a new mechanism where TET1 contributes to tumor development through collaboration with CK2α [21]. The overexpression of the TET1 protein was also found in triple negative breast cancer and was associated with an activation of PI3K/mTOR pathway and decreased overall survival.
(§2) A human dermal fibroblast cell line was used for intracellular localization and cytotoxicity assay (MTT). Human fibroblast cells HF-P4 (human fibroblasts—patient 4) are normal dermal fibroblasts, which were obtained from the residual skin of a healthy patient who underwent plastic surgery (with informed consent of the patient). HF-P4 cell lines were obtained from the Department of Plastic Surgery, Third Faculty of Medicine, Charles University and University Hospital Královské Vinohrady, Prague, Czech Republic, as described by Szabo et al., 2011, and Dvořánková et al., 2019 [88, 89], and have been processed in accordance with the relevant local ethics committee and the Declaration of Helsinki protection of patients’ rights and benefits with written and signed informed consent of each patient. Cells were cultivated under standard conditions in Dulbecco’s modified Eagle’s medium (ATCC, Manassas, VA, USA), supplemented with 10% FBS and streptomycin (100 μg/mL) at 37 °C at a 5% CO2 atmosphere.
(§3) For the cytotoxicity assay, we used the following cell lines: human glioblastoma cell line U118-MG, human mammary gland/breast cell line BT-20, human ovary adenocarcinoma cell line Caov-3, and non-small-cell lung carcinoma H-1299. As previously mentioned, these cell lines contain a high level of the TET1 protein, which corresponds to a lower overall survival. In addition to these cell cultures, we used the human dermal fibroblast cell line HF-P4 as a healthy control. Determination of cytotoxicity was performed using the MTT [3-(4,5-dimethylthiazol-2-yl)-2,5-diphenyltetrazolium bromide] colorimetric assay. Viable cells from each cell line were cultured in 96-well plates (VWR, Stříbrná Skalice, Czech Republic) at a density of 1.0 × 10^5 cells per well and allowed to grow for 24 h in 200 μL of recommended medium. After a 1-day incubation, the medium was replaced with solutions of compounds 1–6 at concentration ranges of 0.1–20 μM. Each concentration was measured four times within one test, and the entire test was repeated three times. Tested compounds 1–6 were dissolved in DMSO and then diluted with corresponding medium to a final volume of 200 μL (maximum 1% DMSO). After 48 h exposure, cells were treated with 175 μL of MTT solution (P-LAB, Prague, Czech Republic) for 2 h. In the next step, MTT solution was removed, and 125 μL of DMSO (Penta, Prague, Czech Republic) was added to solubilize dark crystals of formazan formed in intact cells, and absorbance was measured at 570 nm by the enzyme-linked immunoabsorbent assay reader Infinite® 200 PRO (Tecan, Männedorf, Switzerland). The final DMSO concentration was smaller than 1% (v/v). The absorbance of untreated cells was considered 100%, and IC50 values were calculated by the GraphPad Prism 8 software. As a parameter for cytotoxicity, we used a concentration that inhibits 50% of cell growth (IC50).

HF-P4 cells = experiment: MTT cytotoxicity assay, HF-P4; conditions: 48 h; for Cell viability %: repeats
Protocol: as §1, §2, §3

H-1299 cells = experiment: MTT cytotoxicity assay, H-1299
Protocol: as §1
(§4) A human glioblastoma cell line (U118-MG) and a human non-small-cell lung carcinoma cell line (H1299) were used for the cytotoxicity assay (MTT). Both cell lines were generously supplied by Dr. M. Masařik, PhD, Department of Pathological physiology, Masaryk University, Czech Republic. U118-MG cells were cultivated under standard conditions in Dulbecco’s modified Eagle’s medium (ATCC, Manassas, VA, USA) supplemented with 10% FBS and streptomycin (100 μg/mL) at 37 °C at a 5% CO2 atmosphere. H1299 cells were cultivated under standard conditions in RPMI 1640 (BioTech, Prague, Czech Republic) medium supplemented with 10% FBS and streptomycin (100 μg/mL) at 37 °C at a 5% CO2 atmosphere.
as §3

U-118 MG cells = experiment: MTT cytotoxicity assay, U-118 MG; conditions: 48 h
Protocol: as §1, §4, §3

## Cc1ccc(-n2c(-c3ccc(C(=O)NN)cc3)cc3c2cc(-c2ccc(C(=O)NN)cc2)n3-c2ccc(C)cc2)cc1 [Compound 1]
[1]; HF-P4, 100 nM
  viability at 48 h, 0.1 µM: 101%
[1]; HF-P4, 500 nM
  viability at 48 h, 0.5 µM: 106%
[1]; HF-P4, 750 nM
  viability at 48 h, 0.75 µM: 94%
[1]; HF-P4, 1 uM
  viability at 48 h, 1 µM: 105%
[1]; HF-P4, 2.5 uM
  viability at 48 h, 2.5 µM: 94.3%
[1]; HF-P4, 5 uM
  viability at 48 h, 5 µM: 80.7%
[1]; HF-P4, 7.5 uM
  viability at 48 h, 7.5 µM: 77.3%
[1]; HF-P4, 10 uM
  viability at 48 h, 10 µM: 70.5%
[1]; HF-P4, 15 uM
  viability at 48 h, 15 µM: 67.1%
[1]; HF-P4, 20 uM
  viability at 48 h, 20 µM: 64%
HF-P4 cells; HF-P4, 100 nM, 0.1 µM
  Cell viability %: 110.5137% and 108.5444%
HF-P4 cells; HF-P4, 500 nM, 0.5 µM
  Cell viability %: 109.6499% and 91.3%
HF-P4 cells; HF-P4, 750 nM, 0.75 µM
  Cell viability %: 108.0378% and 98.14%
HF-P4 cells; HF-P4, 1 uM, 1 µM
  Cell viability %: 114.0028% and 114.925%
HF-P4 cells; HF-P4, 2.5 uM, 2.5 µM
  Cell viability %: 106.4486% and 88.2524%
HF-P4 cells; HF-P4, 5 uM, 5 µM
  Cell viability %: 90.58% and 81.47%
HF-P4 cells; HF-P4, 7.5 uM, 7.5 µM
  Cell viability %: 87.03% and 78.05%
HF-P4 cells; HF-P4, 10 uM, 10 µM
  Cell viability %: 75.94% and 65.94%
HF-P4 cells; HF-P4, 15 uM, 15 µM
  Cell viability %: 59.86% and 63.15%
HF-P4 cells; HF-P4, 20 uM, 20 µM
  Cell viability %: 64.65% and 61.04%
HF-P4 cells; Homo sapiens, MTT
  IC50: > 20 µM
H-1299 cells; H-1299, 100 nM, 48 h, repeats, 0.1 µM
  Cell viability %: 74.42% and 77.2%
H-1299 cells; H-1299, 500 nM, 48 h, repeats, 0.5 µM
  Cell viability %: 114.5756% and 80.35% and 108.7959%
H-1299 cells; H-1299, 750 nM, 48 h, repeats, 0.75 µM
  Cell viability %: 97.3% and 84.13% and 122.0664%
H-1299 cells; H-1299, 1 uM, 48 h, repeats, 1 µM
  Cell viability %: 81.23% and 63.3%
H-1299 cells; H-1299, 2.5 uM, 48 h, repeats, 2.5 µM
  Cell viability %: 76.07% and 72.39%
H-1299 cells; H-1299, 5 uM, 48 h, repeats, 5 µM
  Cell viability %: 61.74% and 69.23%
H-1299 cells; H-1299, 7.5 uM, 48 h, repeats, 7.5 µM
  Cell viability %: 36.84% and 36.67%
H-1299 cells; H-1299, 10 uM, 48 h, repeats, 10 µM
  Cell viability %: 36.64% and 31.8986%
H-1299 cells; H-1299, 15 uM, 48 h, repeats, 15 µM
  Cell viability %: 23.04% and 23.96%
H-1299 cells; H-1299, 20 uM, 48 h, repeats, 20 µM
  Cell viability %: 17.01% and 14.68%
H-1299 cells; Homo sapiens, NCI-H1299, 48 h, H-1299, 100 nM, repeats, read-out: Cell viability %
  viability at 0.1 µM: 86.7%
H-1299 cells; Homo sapiens, NCI-H1299, 48 h, H-1299, 1 uM, repeats, read-out: Cell viability %
  viability at 1 µM: 69.9%
H-1299 cells; Homo sapiens, NCI-H1299, 48 h, H-1299, 2.5 uM, repeats, read-out: Cell viability %
  viability at 2.5 µM: 68%
H-1299 cells; Homo sapiens, NCI-H1299, 48 h, H-1299, 5 uM, repeats, read-out: Cell viability %
  viability at 5 µM: 57.7%
H-1299 cells; Homo sapiens, NCI-H1299, 48 h, H-1299, 7.5 uM, repeats, read-out: Cell viability %
  viability at 7.5 µM: 38.4%
H-1299 cells; Homo sapiens, NCI-H1299, 48 h, H-1299, 10 uM, repeats, read-out: Cell viability %
  viability at 10 µM: 35.2%
H-1299 cells; Homo sapiens, NCI-H1299, 48 h, H-1299, 15 uM, repeats, read-out: Cell viability %
  viability at 15 µM: 23.9%
H-1299 cells; Homo sapiens, NCI-H1299, 48 h, H-1299, 20 uM, repeats, read-out: Cell viability %
  viability at 20 µM: 19.2%
H-1299 cells; Homo sapiens, NCI-H1299, MTT, 48 h
  IC50: 6.89 µM
U-118 MG cells; Homo sapiens, U-118-MG, U-118 MG, 100 nM, repeats, read-out: Cell viability %
  viability at 0.1 µM: 74.9%
U-118 MG cells; Homo sapiens, U-118-MG, U-118 MG, 500 nM, repeats, read-out: Cell viability %
  viability at 0.5 µM: 81.2%
U-118 MG cells; Homo sapiens, U-118-MG, U-118 MG, 750 nM, repeats, read-out: Cell viability %
  viability at 0.75 µM: 75.3%
U-118 MG cells; Homo sapiens, U-118-MG, U-118 MG, 1 uM, repeats, read-out: Cell viability %
  viability at 1 µM: 61.6%
U-118 MG cells; Homo sapiens, U-118-MG, U-118 MG, 2.5 uM, repeats, read-out: Cell viability %
  viability at 2.5 µM: 59.8%
U-118 MG cells; Homo sapiens, U-118-MG, U-118 MG, 5 uM, repeats, read-out: Cell viability %
  viability at 5 µM: 64.5%
U-118 MG cells; Homo sapiens, U-118-MG, U-118 MG, 7.5 uM, repeats, read-out: Cell viability %
  viability at 7.5 µM: 65.9%
U-118 MG cells; Homo sapiens, U-118-MG, U-118 MG, 10 uM, repeats, read-out: Cell viability %
  viability at 10 µM: 49.8%
U-118 MG cells; Homo sapiens, U-118-MG, U-118 MG, 15 uM, repeats, read-out: Cell viability %
  viability at 15 µM: 52.9%
U-118 MG cells; Homo sapiens, U-118-MG, U-118 MG, 20 uM, repeats, read-out: Cell viability %
  viability at 20 µM: 32.4%
U-118 MG cells; Homo sapiens, U-118-MG, MTT
  IC50: > 20 µM
U-118 MG cells; U-118 MG, 100 nM, repeats, 0.1 µM
  Cell viability %: 89.42% and 92.96%
U-118 MG cells; U-118 MG, 500 nM, repeats, 0.5 µM
  Cell viability %: 77.57% and 78.28%
U-118 MG cells; U-118 MG, 750 nM, repeats, 0.75 µM
  Cell viability %: 75.76% and 76.03%
U-118 MG cells; U-118 MG, 1 uM, repeats
  Cell viability %: 65.25% and 66.5%
U-118 MG cells; U-118 MG, 2.5 uM, repeats
  Cell viability %: 71.64% and 61.0448%
U-118 MG cells; U-118 MG, 5 uM, repeats
  Cell viability %: 72.2848% and 61.2%
U-118 MG cells; U-118 MG, 7.5 uM, repeats
  Cell viability %: 73.35% and 73.21%
U-118 MG cells; U-118 MG, 10 uM, repeats
  Cell viability %: 65.4465% and 62.16%
U-118 MG cells; U-118 MG, 15 uM, repeats
  Cell viability %: 49.75% and 52.18%
U-118 MG cells; U-118 MG, 20 uM, repeats
  Cell viability %: 38.37% and 42.77%
